Laboratory results published in ChEMBL document CHEMBL1811891 (Bioorg Med Chem, 2011).

What was measured:
Liver microsomes [1] = assay: Metabolic stability in rat liver microsomes assessed as compound remaining after 15 mins; type: ADME, Microsome; conditions: 0.25 h
Liver microsomes [2] = assay: Metabolic stability in human liver microsomes assessed as compound remaining after 15 mins; type: ADME, Microsome; conditions: 0.25 h
[3] = molecular target: C-C chemokine receptor type 5 (Homo sapiens, UniProt P51681); assay: Antagonist activity at human CCR5 expressed in CHO cells assessed as inhibition of MIP-1alpha-induced calcium mobilization; type: functional, cell-based
[4] = system: Human immunodeficiency virus 1; assay: microbe, parasite or virus in culture; conditions: Human immunodeficiency virus 1, Ba-L
Description: Antiviral activity against R5 tropic HIV1 Ba-L infected PBMC assessed as inhibition of viral p24 antigen expression

[5] = Clearance in rat at 1 mg/kg, iv; type: ADME, organism-based; design: dose 1 mg/kg, route intravenous; conditions: in vivo
Salmonella typhimurium = assay: Genotoxicity in Salmonella Typhimurium by Ames test; type: toxicity, organism-based; conditions: salmonella enterica subsp. enterica serovar typhimurium
[6] = Bioavailability in rat at 1 mg/kg, iv; type: ADME, organism-based; conditions: in vivo
Canis familiaris = assay: Cardiotoxicity in dog at 100 mg/kg, po after 14 days; type: toxicity, organism-based, Canis lupus familiaris; design: dose 100 mg/kg, route oral; conditions: in vivo, 336 h
in vivo [7] = conditions: dog, po, 3 mg/kg
Rhesus monkey = assay: Half life in monkey at 10 mg/kg, po; type: ADME, organism-based, Macaca mulatta; design: dose 10 mg/kg, route oral; conditions: in vivo
in vivo [8] = conditions: dog, plasma, po, 3 mg/kg
Rattus norvegicus [9] = assay: Toxicity in rat at 100 mg/kg, po after 14 days; type: organism-based; design: dose 100 mg/kg, route oral; conditions: in vivo, 336 h
[10] = Bioavailability in dog at 1 mg/kg, iv; type: ADME, organism-based, Canis lupus familiaris; conditions: in vivo
[11] = Clearance in monkey at 1 mg/kg, iv; type: ADME, organism-based, Macaca mulatta; design: dose 1 mg/kg, route intravenous; conditions: rhesus monkey, in vivo
[12] = Half life in dog at 3 mg/kg, po; type: ADME, organism-based, Canis lupus familiaris; design: dose 3 mg/kg, route oral; conditions: in vivo
[13] = Bioavailability in monkey at 1 mg/kg, iv; type: ADME, organism-based, Macaca mulatta; conditions: rhesus monkey, in vivo
[14] = Clearance in dog at 1 mg/kg, iv; type: ADME, organism-based, Canis lupus familiaris; design: dose 1 mg/kg, route intravenous; conditions: in vivo
[15] = Half life in rat at 3 mg/kg, iv; type: ADME, organism-based; design: dose 3 mg/kg, route intravenous; conditions: in vivo
[16] = Half life in rat at 10 mg/kg, po; type: ADME, organism-based; design: dose 10 mg/kg, route oral; conditions: in vivo
Rattus norvegicus [17] = assay: Dose normalized Cmax in rat at 10 mg/kg, po; type: ADME, organism-based; design: dose 10 mg/kg, route oral; conditions: in vivo
Rattus norvegicus [18] = assay: Dose normalized AUC in rat at 10 mg/kg, po; type: ADME, organism-based; design: dose 10 mg/kg, route oral; conditions: in vivo
[19] = AUC in rat at 3 mg/kg, iv; type: ADME, organism-based; design: dose 3 mg/kg, route intravenous; conditions: plasma
[20] = Clearance in rat at 3 mg/kg, iv; type: ADME, organism-based; design: dose 3 mg/kg, route intravenous; conditions: in vivo
[21] = Bioavailability in rat at 10 mg/kg, po; type: ADME, organism-based; conditions: in vivo
[22] = Aqueous solubility of the compound at pH 6.8; type: physicochemical; conditions: buffer
[23] = Volume of distribution at steady state in rat at 3 mg/kg, iv; conditions: in vivo

Chain of C-C chemokine receptor type 5 (P51681 whole entry): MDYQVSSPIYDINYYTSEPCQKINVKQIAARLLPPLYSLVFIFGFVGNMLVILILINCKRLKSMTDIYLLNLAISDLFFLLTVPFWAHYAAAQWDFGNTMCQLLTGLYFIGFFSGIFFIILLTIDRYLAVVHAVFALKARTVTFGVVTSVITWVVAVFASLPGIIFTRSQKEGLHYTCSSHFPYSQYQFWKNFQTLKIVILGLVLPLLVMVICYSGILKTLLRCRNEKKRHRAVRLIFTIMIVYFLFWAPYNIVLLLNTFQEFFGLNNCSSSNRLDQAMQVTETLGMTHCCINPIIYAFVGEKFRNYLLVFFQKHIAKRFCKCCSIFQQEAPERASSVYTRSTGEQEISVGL

Structure (SMILES): CCCCN1C(=O)[C@@H]([C@H](O)C2CCCC2)NC(=O)C12CCN(Cc1ccc(Oc3ccc(C(=O)O)cc3)cc1)CC2.Cl
- Stability (Liver microsomes [1]): 100%
- Stability (Liver microsomes [2]): 93%
- IC50 [3]: 33 nM

Structure (SMILES): Cc1c(O)cccc1C(=O)N[C@@H](CSc1ccccc1)[C@H](O)CN1C[C@H]2CCCC[C@H]2C[C@H]1C(=O)NC(C)(C)C
- IC90 [4]: 105 nM

Structure (SMILES): CCN1C(=O)[C@@H]([C@H](O)C2CCCCC2)NC(=O)C12CCN(Cc1ccc(Oc3ccc(C(=O)NC)cc3)cc1)CC2
- IC50 [3]: 20 nM

Structure (SMILES): CCCCN1C(=O)[C@@H]([C@H](O)C2CCCCC2)NC(=O)C12CCN(Cc1ccc(Oc3ccc(C(=O)O)cc3)cc1)CC2.Cl [APLAVIROC HYDROCHLORIDE]
- clearance [5]: 10 mL/min
- Activity (Salmonella typhimurium): Non-toxic
- bioavailability [6]: 23%
- Activity (Canis familiaris): Non-toxic
- Cmax (in vivo [7]): 135 ng/mL
- t1/2 (Rhesus monkey): 24.4 h
- AUC (in vivo [8]): 189 ng·h/mL
- IC90 [4]: 12 nM
- Activity (Rattus norvegicus [9]): Non-toxic
- bioavailability [10]: 12%
- clearance [11]: 15 mL/min
- half-life [12]: 4.5 h
- bioavailability [13]: 4.6%
- clearance [14]: 33 mL/min

Structure (SMILES): CNC(=O)c1ccc(Oc2ccc(CN3CCC4(CC3)C(=O)N[C@H]([C@H](O)C3CCCCC3)C(=O)N4CCC(C)O)cc2)cc1 (stereo not given in full)
- IC50 [3]: 180 nM

Structure (SMILES): CCCCN1C(=O)[C@@H]([C@H](O)C2CC2)NC(=O)C12CCN(Cc1ccc(Oc3ccc(C(=O)O)cc3)cc1)CC2.Cl
- Stability (Liver microsomes [1]): 100%
- Stability (Liver microsomes [2]): 89%
- IC50 [3]: 81 nM

Structure (SMILES): CCCCN1C(=O)C(CC2CCCCC2)NC(=O)C12CCN(Cc1ccc(Oc3ccc(C(=O)NC)cc3)cc1)CC2.Cl (stereo not given)
- half-life [15]: 0.332 h
- half-life [16]: 1.72 h
- Cmax/dose (Rattus norvegicus [17]): 5.6 ng/mL
- AUC/dose (Rattus norvegicus [18]): 24.8 ng·h/mL
- AUC [19]: 400 ng·h/mL
- clearance [20]: 113 mL/min/kg
- bioavailability [21]: 1.9%

Structure (SMILES): Cc1ccc(-c2ccc3c(c2)C=C(C(=O)Nc2ccc(C[N+](C)(C)C4CCOCC4)cc2)CCC3)cc1
- IC90 [4]: 256 nM

Structure (SMILES): CCCCCN1C(=O)[C@@H]([C@H](O)C2CCCCC2)NC(=O)C12CCN(Cc1ccc(Oc3ccc(C(=O)NC)cc3)cc1)CC2
- IC50 [3]: 68 nM

Structure (SMILES): CCCCN1C(=O)[C@@H]([C@H](O)C2CCCCC2)NC(=O)C12CCN(Cc1ccc(Oc3ccccc3)cc1)CC2.Cl
- Stability (Liver microsomes [1]): 18%
- Stability (Liver microsomes [2]): 6%

Structure (SMILES): CCCCN1C(=O)[C@H](CC2CCCCC2)NC(=O)C12CCN(Cc1ccc(Oc3ccc(C(=O)O)cc3)cc1)CC2
- IC90 [4]: 171 nM

Structure (SMILES): CCCCN1C(=O)[C@@H]([C@H](O)C(C)C)NC(=O)C12CCN(Cc1ccc(Oc3ccccc3)cc1)CC2.Cl
- solubility [22]: 2.7 µg/mL

Structure (SMILES): COC[C@@H](c1ccc(C(F)(F)F)cc1)N1CCN(C2(C)CCN(C(=O)c3c(C)ncnc3C)CC2)C[C@@H]1C [VICRIVIROC]
- IC90 [4]: 79 nM

Structure (SMILES): CCCCN1C(=O)[C@@H]([C@H](O)C2CCC(O)CC2)NC(=O)C12CCN(Cc1ccc(Oc3ccc(C(=O)O)cc3)cc1)CC2.Cl (stereo not given in full)
- Stability (Liver microsomes [1]): 100%
- Stability (Liver microsomes [2]): 100%
- IC50 [3]: 140 nM

Structure (SMILES): CN1C(=O)[C@@H]([C@H](O)C2CCCCC2)NC(=O)C12CCN(Cc1ccc(Oc3ccc(C(=O)O)cc3)cc1)CC2
- IC50 [3]: 50 nM

Structure (SMILES): CCCN1C(=O)[C@@H]([C@H](O)C2CCCCC2)NC(=O)C12CCN(Cc1ccc(Oc3ccc(C(=O)NC)cc3)cc1)CC2.Cl
- half-life [15]: 0.72 h
- half-life [16]: 2 h
- Cmax/dose (Rattus norvegicus [17]): 133 ng/mL
- AUC/dose (Rattus norvegicus [18]): 513 ng·h/mL
- Vd [23]: 1.73 L/kg
- IC50 [3]: 28 nM
- AUC [19]: 1370 ng·h/mL
- clearance [20]: 35.9 mL/min/kg
- bioavailability [21]: 11.2%

Structure (SMILES): Cc1cn([C@H]2C[C@H](N=[N+]=[N-])[C@@H](CO)O2)c(=O)[nH]c1=O [ZIDOVUDINE]
- IC90 [4]: 48 nM

Structure (SMILES): CCN1C(=O)[C@@H]([C@H](O)C2CCCCC2)NC(=O)C12CCN(Cc1ccc(Oc3ccc(C(=O)O)cc3)cc1)CC2
- IC50 [3]: 23 nM

Structure (SMILES): CCCCN1C(=O)[C@@H]([C@H](O)C2CCC2)NC(=O)C12CCN(Cc1ccc(Oc3ccc(C(=O)O)cc3)cc1)CC2.Cl
- Stability (Liver microsomes [1]): 100%
- Stability (Liver microsomes [2]): 95%
- IC50 [3]: 25 nM
